How the values were obtained:
[1] = target: T1, h-GABA-A α5β3γ2 (Homo sapiens, UniProt P18507+P31644); test: [3H]flumazenil competition binding assay on membranes of HEK293 cells expressing GABAA receptors; conditions: Table 1; displacement of [3H]-Flumazenil (0.5 nM), HEK293 cells expressing human receptors, means of two determinations
T1 construct: expressed in transfected cells; host or cells: Xenopus laevis oocytes, micro-injected with subunit RNA
Procedure: The affinity of compounds at GABAA receptor subtypes was measured by competition for [3H]flumazenil (85 Ci/mmol; Roche) binding to HEK293 cells expressing rat (stably transfected) or human (transiently transfected) receptors of composition α1β3γ2, α2β3γ2, α3β3γ2 and α5β3γ2.
Cell pellets were suspended in Krebs-tris buffer (4.8 mM KCl, 1.2 mM CaCl2, 1.2 mM MgCl2, 120 mM NaCl, 15 mM Tris; pH 7.5; binding assay buffer), homogenized by polytron for ca. 20 sec on ice and centrifuged for 60 min at 4° C. (50000 g; Sorvall, rotor: SM24=20000 rpm). The cell pellets were resuspended in Krebs-tris buffer and homogenized by polytron for ca. 15 sec on ice. Protein was measured (Bradford method, Bio-Rad) and aliquots of 1 mL were prepared and stored at −80° C.
Radioligand binding assays were carried out in a volume of […] (96-well plates) which contained […] of cell membranes, [^3H]-Flumazenil at a concentration of 1 nM for α1, α2, α3 subunits and 0.5 nM for α5 subunits and the test compound in the range of […]. Nonspecific binding was defined by 10^−5 M diazepam and typically represented less than 5% of the total binding. Assays were incubated to equilibrium for 1 hour at 4° C. and harvested onto GF/C uni-filters (Packard) by filtration using a Packard harvester and washing with ice-cold wash buffer (50 mM Tris; pH 7.5). After drying, filter-retained radioactivity was detected by liquid scintillation counting. Ki values were calculated using Excel-Fit (Microsoft) and are the means of two determinations.
In a preferred embodiment the compounds of the invention are binding selective for the α5 subunit relative to the α1, α2 and α3 subunit. Representative test results, obtained by the above described assay measuring binding affinity to HEK293 cells expressing human (h) receptors, are shown in the Table below.

[2] = target: T1, h-GABA-A α5β3γ2; test: Two-electrode voltage clamp electrophysiology in Xenopus oocytes expressing GABAA receptors (modulation of GABA EC20 current); assay type: cell-based; conditions: Table 1; for Efficacy (GABA) %: % modulation of GABA EC20 = 100*(Fold increase-1); for Fold increase h-GABA-A α5β3γ2 oocyte: Xenopus oocytes, GABA EC20, test compound at approximatively 30 fold its Ki
Procedure: Xenopus laevis oocytes at maturation stages V-VI were used for the expression of cloned mRNA encoding GABAA receptor subunits. Oocytes ready for RNA micro-injection were bought from Ecocyte, Castrop-Rauxel, Germany and stored in modified Barth's medium (composition in mM: NaCl 88, KCl 1, NaHCO3 2.4, HEPES 10, MgSO4 0.82, CaNO3 0.33, CaCl2 0.33, pH=7.5) at 20° C. until the experiment.
Oocytes were plated in 96-well plates to be used in an automated instrument (Robo-ocyte, MultiChannelSystems, Reutlingen, Germany) for microinjection and electrophysiological recordings. Approximately 50 nl of an aqueous solution containing the RNA transcripts for the subunits of the desired GABAA receptor was injected into each oocyte. RNA concentrations ranged between 0.3 and 16 ng/μl/subunit and were adjusted in pilot experiments to obtain GABA responses of a suitable size and a maximal effect of the reference modulator, Beta-CCM (3-CCM), a betacarboline negative allosteric modulator (NAM) at the GABAA receptor benzodiazepine (BZD) binding site or Midazolam, a benzodiazepine positive allosteric modulator (PAM) at the GABAA receptor benzodiazepine (BZD) binding site. The concentration of the γ2 subunit encoding RNA usually was 5- to 10-fold higher than the RNAs encoding the other subunits. Oocytes were kept in modified Barth's medium (composition in mM: NaCl 88, KCl 1, NaHCO3 4, HEPES 10, MgSO4 0.82, CaNO3 0.33, CaCl2 0.33, pH=7.5) at 20° C. until the experiment.
Electrophysiological experiments were performed on days 3 to 5 after the micro-injection of mRNA. During the experiment the oocytes were constantly superfused by a solution containing (in mM) NaCl 90, KCl 1, HEPES 5, MgCl2 1, CaCl2 1 (pH 7.4). Oocytes were impaled by two glass microelectrodes (resistance: 0.4 MQ) which were filled with a solution containing KCl 1M+K-acetate 1.5 M and voltage-clamped to −80 mV. The recordings were performed at room temperature using the Roboocyte two-electrode voltage clamp system (Multichannelsystem). After an initial equilibration period of 1.5 min GABA was added for 1.5 min at a concentration evoking approximately 20% of a maximal current response (EC20). After another rest interval of 2.5 min GABA was again added evoking a response of similar amplitude and shape. 0.5 min after the onset of this second GABA application the test compound, at a concentration corresponding to approximatively 30 fold its Ki, was added while GABA was still present. Current traces were recorded at a digitization rate of 10 Hz during and shortly before and after the GABA application.
Each compound and concentration was tested on at least 3 oocytes. Different oocytes were used for different compound concentrations. β-CCM, a negative allosteric modulator, or Midazolam, a positive allosteric modulators, were tested on a few (3-6) oocytes on each 96-well plate for a positive control at a maximally effective. β-CCM inhibited the GABA-evoked current by approximatively 50% (Fold increase 0.5), while Midazolam potentiated the GABA-induced current by approximatively 150% (Fold increase 2.5).
For the analysis, the digitized current traces of the first and second GABA response were superimposed and, if necessary, rescaled to equal maximal amplitudes. The ratio between the two responses during the time interval of test compound application was calculated point by point. The extremum of the resulting “ratio trace” was taken as the efficacy (“Fold increase”) of the compound expressed as “% modulation of GABA EC20” (100*(Fold increase-1)).

Row | SMILES | Ki [1] [nM] | Efficacy (GABA) % [2] [%] | Fold increase h-GABA-A α5β3γ2 oocyte [2]
1 | Cc1ccc(-c2nnn(C)c2Cn2ncc(N3CCC(C)(C)C3)cc2=O)cn1 [Example 10, 5-(3,3-dimethylpyrrolidin-1-yl)-2-[[3-methyl-5-(6-methyl-3-pyridyl)triazol-4-yl]methyl]pyridazin-3-one] | 4.4 | 201 | 3.01
2 | Cc1ccc(-c2nnn(C)c2Cn2ncc(N3CCOC(C)(C)C3)cc2=O)cn1 [Example 11, 5-(2,2-dimethylmorpholin-4-yl)-2-[[3-methyl-5-(6-methyl-3-pyridyl)triazol-4-yl]methyl]pyridazin-3-one] | 1.2 | 48 | 1.48
3 | Cc1nnn(-c2ccc(Cl)cc2)c1Cn1ncc(N(C)C)cc1=O [Example 13, 2-[[3-(4-chlorophenyl)-5-methyl-triazol-4-yl]methyl]-5-(dimethylamino)pyridazin-3-one] | 31.9 | 31 | 1.31
4 | Cc1nnn(-c2ccc(Cl)cc2)c1Cn1ncc(N2CCNCC2)cc1=O [Example 14, 2-[[3-(4-chlorophenyl)-5-methyl-triazol-4-yl]methyl]-5-piperazin-1-yl-pyridazin-3-one] | 39.6 | 72 | 1.72
5 | CN(C)c1cnn(Cc2c(-c3ccc(Cl)cc3F)nnn2C)c(=O)c1 [Example 15, 2-[[5-(4-chloro-2-fluoro-phenyl)-3-methyl-triazol-4-yl]methyl]-5-(dimethylamino)pyridazin-3-one] | 3.8 | 48 | 1.48
6 | Cn1nnc(-c2ccc(Cl)cc2F)c1Cn1ncc(N2CCN(C3CC3)CC2)cc1=O [Example 17, 2-[[5-(4-chloro-2-fluoro-phenyl)-3-methyl-triazol-4-yl]methyl]-5-(4-cyclopropyl-piperazin-1-yl)pyridazin-3-one] | 12 | 75 | 1.75
7 | COC[C@@H]1CCCN1c1cnn(Cc2c(-c3ccc(C)nc3)nnn2C)c(=O)c1 [Example 19, 5-[(2S)-2-(methoxymethyl)pyrrolidin-1-yl]-2-[[3-methyl-5-(6-methyl-3-pyridyl)triazol-4-yl]methyl]pyridazin-3-one] | 10.6 | 137 | 2.37
8 | Cc1nnn(-c2ccc(Cl)cc2)c1Cn1ncc(N2C[C@@H](C)O[C@@H](C)C2)cc1=O [Example 20, 2-[[3-(4-chlorophenyl)-5-methyl-triazol-4-yl]methyl]-5-[(2R,6S)-2,6-dimethylmorpholin-4-yl]pyridazin-3-one] | 8.4 | 108 | 2.08
9 | CNc1cnn(Cc2c(-c3ccc(Cl)cc3F)nnn2C)c(=O)c1 [Example 22, 2-[[5-(4-chloro-2-fluoro-phenyl)-3-methyl-triazol-4-yl]methyl]-5-(methylamino)pyridazin-3-one] | 20.8 | 45 | 1.45
10 | Cc1nnn(-c2ccc(Cl)cc2F)c1Cn1ncc(N2Cc3ccccc3C2)cc1=O [Example 24, 2-[[3-(4-chloro-2-fluoro-phenyl)-5-methyl-triazol-4-yl]methyl]-5-isoindolin-2-yl-pyridazin-3-one] | 52.6 | 60 | 1.6
11 | Cc1ccc(-n2nnc(C)c2Cn2ncc(N3CCC[C@H]3C)cc2=O)cn1 [Example 25, 2-[[5-methyl-3-(6-methyl-3-pyridyl)triazol-4-yl]methyl]-5-[(2R)-2-methylpyrrolidin-1-yl]pyridazin-3-one] | 4.4 | 97 | 1.97
12 | CCOC1CN(c2cnn(Cc3c(-c4ccc(Cl)cc4F)nnn3C)c(=O)c2)C1 [Example 27, 2-[[5-(4-chloro-2-fluoro-phenyl)-3-methyl-triazol-4-yl]methyl]-5-(3-ethoxyazetidin-1-yl)pyridazin-3-one] | 8.2 | 69 | 1.69

Further lines, results first:

Row | Ki [1] [nM] | Efficacy (GABA) % [2] [%] | Fold increase h-GABA-A α5β3γ2 oocyte [2] | SMILES
13 | 16.8 | 135 | 2.35 | Cc1ccc(-c2nnn(C)c2Cn2ncc(N3CCOCC3)cc2=O)cn1 [Example 9, 2-[[3-methyl-5-(6-methyl-3-pyridyl)triazol-4-yl]methyl]-5-morpholino-pyridazin-3-one]
14 | 2.2 | 81 | 1.81 | Cn1nnc(-c2ccc(Cl)cc2F)c1Cn1ncc(N2CCOCC2)cc1=O [Example 16, 2-[[5-(4-chloro-2-fluoro-phenyl)-3-methyl-triazol-4-yl]methyl]-5-morpholino-pyridazin-3-one]
15 | 0.8 | 79 | 1.79 | Cc1ccc(-c2nnn(C)c2Cn2ncc(N3CCC[C@H]3C)cc2=O)cn1 [Example 18, 2-[[3-methyl-5-(6-methyl-3-pyridyl)triazol-4-yl]methyl]-5-[(2R)-2-methylpyrrolidin-1-yl]pyridazin-3-one]
16 | 8.7 | 140 | 2.4 | Cn1nnc(-c2ccc(Cl)cc2F)c1Cn1ncc(N2CCN(C(=O)C3CC3)CC2)cc1=O [Example 21, 2-[[5-(4-chloro-2-fluoro-phenyl)-3-methyl-triazol-4-yl]methyl]-5-[4-(cyclopropanc-carbonyl)piperazin-1-yl]pyridazin-3-one]
17 | 70 | 75 | 1.75 | CCOC1CN(c2cnn(Cc3c(C)nnn3-c3ccc(Cl)cc3F)c(=O)c2)C1 [Example 23, 2-((1-(4-chloro-2-fluorophenyl)-4-methyl-1H-1,2,3-triazol-5-yl)methyl)-5-(3-ethoxyazetidin-1-yl)pyridazin-3(2H)-one]
18 | 12.8 | 55 | 1.55 | COC1CN(c2cnn(Cc3c(-c4ccc(Cl)cc4F)nnn3C)c(=O)c2)C1 [Example 26, 2-[[5-(4-chloro-2-fluoro-phenyl)-3-methyl-triazol-4-yl]methyl]-5-(3-methoxyazetidin-1-yl)pyridazin-3-one]
